Tested on: SEM cells
Test: cell viability relative to DMSO control; higher = less cytotoxic
Conditions: 48 h
Procedure, shortened: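 NOMO1 or SEM cells were plated at 500 cells/well and P12-Ichikawa cells at 1000 cells/well in 1536-well plates (5 μl), after each leukemia line had been adapted for at least four passages in each medium. Pin dosing delivered library compounds in DMSO at 11 threefold concentrations, 47 μM to 0.79 nM. CellTiter-Glo One luminescence was read after 48 h at 37°C. Viability is reported as a per-plate percentage of DMSO wells, with cell-free wells as background.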

[1] = HPLM + 10% dialyzed FBS, 0.000781 µM
[2] = HPLM + 10% dialyzed FBS, 0.00234 µM
[3] = HPLM + 10% dialyzed FBS, 0.00702 µM
[4] = HPLM + 10% dialyzed FBS, 0.0211 µM
[5] = HPLM + 10% dialyzed FBS, 0.0632 µM
[6] = HPLM + 10% dialyzed FBS, 0.19 µM
[7] = HPLM + 10% dialyzed FBS, 0.569 µM
[8] = HPLM + 10% dialyzed FBS, 1.71 µM
[9] = HPLM + 10% dialyzed FBS, 5.12 µM
[10] = HPLM + 10% dialyzed FBS, 15.4 µM
[11] = HPLM + 10% dialyzed FBS, 46.1 µM
[12] = RPMI 5 mM glucose + 10% FBS, 0.000781 µM
[13] = RPMI 5 mM glucose + 10% FBS, 0.00234 µM
[14] = RPMI 5 mM glucose + 10% FBS, 0.00702 µM
[15] = RPMI 5 mM glucose + 10% FBS, 0.0211 µM
[16] = RPMI 5 mM glucose + 10% FBS, 0.0632 µM
[17] = RPMI 5 mM glucose + 10% FBS, 0.19 µM
[18] = RPMI 5 mM glucose + 10% FBS, 0.569 µM
[19] = RPMI 5 mM glucose + 10% FBS, 1.71 µM
[20] = RPMI 5 mM glucose + 10% FBS, 5.12 µM
[21] = RPMI 5 mM glucose + 10% FBS, 15.4 µM
[22] = RPMI 5 mM glucose + 10% FBS, 46.1 µM
[23] = RPMI 5 mM glucose + 10% dialyzed FBS, 0.000781 µM
[24] = RPMI 5 mM glucose + 10% dialyzed FBS, 0.00234 µM
[25] = RPMI 5 mM glucose + 10% dialyzed FBS, 0.00702 µM
[26] = RPMI 5 mM glucose + 10% dialyzed FBS, 0.0211 µM
[27] = RPMI 5 mM glucose + 10% dialyzed FBS, 0.0632 µM
[28] = RPMI 5 mM glucose + 10% dialyzed FBS, 0.19 µM
[29] = RPMI 5 mM glucose + 10% dialyzed FBS, 0.569 µM
[30] = RPMI 5 mM glucose + 10% dialyzed FBS, 1.71 µM
[31] = RPMI 5 mM glucose + 10% dialyzed FBS, 5.12 µM
[32] = RPMI 5 mM glucose + 10% dialyzed FBS, 15.4 µM
[33] = RPMI 5 mM glucose + 10% dialyzed FBS, 46.1 µM

Row | SMILES | cell viability [1] | cell viability [2] | cell viability [3] | cell viability [4] | cell viability [5] | cell viability [6] | cell viability [7] | cell viability [8] | cell viability [9] | cell viability [10] | cell viability [11] | cell viability [12] | cell viability [13] | cell viability [14] | cell viability [15] | cell viability [16] | cell viability [17] | cell viability [18] | cell viability [19] | cell viability [20] | cell viability [21] | cell viability [22] | cell viability [23] | cell viability [24] | cell viability [25] | cell viability [26] | cell viability [27] | cell viability [28] | cell viability [29] | cell viability [30] | cell viability [31] | cell viability [32] | cell viability [33]
1 | O=C(O)c1nn(Cc2ccc(Cl)cc2Cl)c2ccccc12 | 93.5% | 90.1% | 95.5% | 96.3% | 86.5% | 54.8% | 68.7% | 92.3% | 84.7% | 76.2% | 54.7% | 124% | 123% | 132% | 130% | 93.3% | 83.6% | 86.2% | 135% | 95.2% | 94.7% | 81% | 96.1% | 89.9% | 89.1% | 77.2% | 76.3% | 46.9% | 69% | 97.5% | 70.1% | 92.7% | 59.6%
2 | CC(=O)O[C@@]12CO[C@@H]1C[C@H](O)[C@]3(C)[C@@H]2[C@H](OC(=O)C4=CC=CC=C4)[C@]5(O)C[C@H](O)/C(=C(/[C@@H](O)C3=O)C5(C)C)C | 84.3% | 108% | 43.5% | 110% | 106% | 111% | 116% | 107% | 90.2% | 35.8% | 16.3% | 70.4% | 71.5% | 19.1% | 71% | 64.7% | 72.3% | 70.1% | 65.2% | 54.2% | 18.1% | 8.94% | 90.8% | 99.6% | 43.2% | 116% | 105% | 110% | 121% | 112% | 75.1% | 29.9% | 13%
3 | CCNC(=O)c1noc(-c2cc(C(C)C)c(O)cc2O)c1-c1ccc(CN2CCOCC2)cc1 | 90.6% | 97.5% | 92.4% | 103% | 31.8% | 21.1% | 20.2% | 20.9% | 19.6% | 17.3% | 14.2% | 95.2% | 102% | 102% | 102% | 27.1% | 21.6% | 19.8% | 19.6% | 19.4% | 14.1% | 7.66% | 101% | 95.7% | 89.5% | 99.5% | 36.1% | 24.9% | 26.4% | 22.6% | 18.6% | 19.2% | 11.2%
4 | Cc1ccc([S+](=O)([O-])NC(=O)NN2CC3CCCC3C2)cc1 (configuration not stated) | 57.6% | 102% | 89.1% | 106% | 101% | 100% | 96.9% | 86.1% | 58.7% | 18.7% | 9.78% | 55.2% | 93.6% | 77.9% | 94.5% | 106% | 94.4% | 80.8% | 76.6% | 43.7% | 14.9% | 9.35% | 50.2% | 98.7% | 84.5% | 96.6% | 109% | 87.8% | 84.7% | 67.7% | 39.3% | 26.8% | 13.1%
5 | Cc1ccnc(N[S+](=O)([O-])c2ccc(NC(=O)Nc3ccc([S+](=O)([O-])Nc4nccc(C)n4)cc3)cc2)n1 | 77.9% | 90.3% | 89.8% | 90.1% | 86.8% | 38.8% | 35.6% | 10.6% | 8.5% | 7.84% | 6.37% | 86.6% | 73.1% | 79.4% | 75.2% | 64.8% | 9.99% | 8.62% | 6.14% | 6.29% | 5.29% | 3.81% | 77.8% | 86.7% | 87.7% | 85.8% | 77.5% | 21.9% | 19.7% | 8.34% | 8.01% | 7.59% | 5.43%
6 | O=C(c1ccc(C(=O)N2CCC(N3CCCC3)CC2)c(Nc2ccccc2)c1)N1CCC(N2CCCC2)CC1 | 119% | 111% | 115% | 94.8% | 116% | 113% | 107% | 107% | 103% | 98.7% | 96.4% | 112% | 106% | 109% | 104% | 105% | 115% | 117% | 102% | 89% | 102% | 103% | 80.7% | 91.2% | 102% | 104% | 98% | 102% | 104% | 112% | 101% | 88.5% | 82.6%
7 | CN(C)[C@H]\1[C@@H]2[C@@H](O)[C@H]3\C(=C(O)/[C@]2(O)C(=O)\C(=C1O)C(N)=O)C(=O)C4=C(C=CC=C4O)[C@@]3(C)O | 100% | 95.3% | 99.4% | 98.8% | 98.9% | 106% | 105% | 103% | 117% | 106% | 95.7% | 102% | 123% | 121% | 125% | 115% | 114% | 129% | 121% | 104% | 133% | 118% | 113% | 121% | 121% | 118% | 125% | 124% | 115% | 114% | 122% | 118% | 118%
8 | COc1ccccc1N1CCN(CC(O)COc2cccc3ccccc23)CC1 (configuration not stated) | 62.9% | 116% | 124% | 131% | 136% | 119% | 111% | 108% | 121% | 109% | 88.8% | – | – | – | – | – | – | – | – | – | – | – | – | – | – | – | – | – | – | – | – | – | –

Source: the supplement of paper PMC11451515
